The test deals with HepG2 cells. Nature of the test: Hepatotoxicity, XTT viability after 72 h. Format: cell-based. The conditions noted are these: Homo sapiens; 72 h, HepG2, 5.5 mM glucose; read-out: Hepatotoxicity IC50, 5.5 mM glucose. As for the experimental part: Then, the cell viability (XTT assay) and reactive oxygen species (ROS) induction were evaluated.
(A) Hepatotoxicity provoked by compound 4 was assessed after 72 h incubation of HepG2 cells in low glucose medium (5 mM) in the presence of compound 4 (0.25–100 μM). (B) Mitochondrial toxicity was determined after 24 h incubation of HepG2 cells in either high glucose medium (25 mM) or galactose medium (10 mM) in the presence of compound 4 (2.5–150 μM). Cell viabilities were recorded in triplicates in three independent experiments and expressed as percentage of vehicle control ± SD and IC50 values were determined by GraphPad Prism software using following equation: Y = Bottom + (Top–Bottom)/(1 + 10ˆ((LogIC50-X)^∗HillSlope)), where IC50 is the concentration of compound 4 that inhibits cell viability half way between Bottom and Top plateaus, X is compound 4 concentration and HillSlope describes the steepness of the family of curves. […] (C) Concentration-dependent effect on ROS level. HepG2 cells were treated with compound 4 (0.25–100 μM) for 72 h, and then the intracellular level of total ROS in relative fluorescence units (RFU) was detected. The data are presented as the mean ± SD for at least three independent experiments and each experiment was carried out in triplicate. Final concentration of DMSO in samples was 1%. […] Single asterisks (^∗) indicate a significant difference (P < 0.05) compared to 1% DMSO control (one-way ANOVA with Dunnett’s post-test).
HepG2 cells (ATCC®, United Kingdom) were grown in complete Minimal Essential Medium (EMEM) (5.5 mM glucose) medium, supplemented with 10% (v/v) fetal calf serum, 200 μg/mL of streptomycin, 200 U/mL of penicillin G and 4 mM glutamine. They were cultured under a humidified atmosphere containing 5% CO2 at 37°C.
The cytotoxicity of the tested compounds was assessed with use of XTT cell proliferation kit II (Roche Diagnostics GmbH, Mannheim, Germany) according to the manufacturer’s instructions. Briefly HepG2 cells were seeded in a 96-well plate at a density of 22,000 cells per well. After 24 h, the tested neurosteroids in a concentration range from 0.5 to 200 μM were added to the culture media and incubated for 72 h before the XTT dye was added. Mitochondrial toxicity was assessed in HepG2 cells using glucose and galactose conditioned media and XTT assay as a read out for cell viability. In brief, cells were seeded onto 96 well, clear bottom tissue culture plates at a density of 22,000 cells/well and left overnight to attach. Six hours prior to the neurosteroids treatment the media was replaced with 100 μL DMEM media containing either glucose (25 mM glucose; 1 mM pyruvate; 2 mM glutamine, 10% FBS) or galactose (10 mM galactose, 1 mM pyruvate, 6 mM glutamine, 10% FBS). After that, the tested neurosteroids in a concentration range from 0.5 to 200 μM were added in the fresh appropriate assay medium (glucose or galactose) and incubated for 24 h before the XTT dye was added. The XTT absorbance was recorded at 495 nm after 1 h incubation with the dye. Compounds were dissolved in DMSO to produce the stock solutions at the concentration of 10 mM, with exception of PAG, 1, 6 (5 mM), and 11 (2.5 mM). Results were expressed as percentages of change in viability compared to appropriate DMSO control. IC50 values were determined by GraphPad Prism version 5.00 for Windows (GraphPad Software, La Jolla, CA, United States). All experiments were done in triplicates in three independent experiments to check the reproducibility.
Background: Tetrazolium assays rely on reduction of a dye to a coloured formazan, in cell work by metabolically active cells.

Usually IC50 stands for the midpoint of a concentration-inhibition curve.

For `C[C@@]12CCC[C@H]1[C@@H]1CC[C@@H]3C[C@H](NC(=O)[C@@H](N)CC(=O)O)CC[C@]3(C)[C@H]1CC2` [Compound 6, (S)-3-amino-4-(((3R,5R,8S,9S,10S,13S,14S)-10,13-dimethylhexadecahydro-1H-cyclopenta[a]phenanthren-3-yl)amino)-4-oxobutanoic acid], the IC50 was over 200 µM.

The record behind these values is paper PMC6240685, “Strong Inhibitory Effect, Low Cytotoxicity and High Plasma Stability of Steroidal Inhibitors of N-Methyl-D-Aspartate Receptors With C-3 Amide Structural Motif” (Frontiers in Pharmacology, 2018).
